Measured values from PMC7377239, “Cardiovascular Effects of Polychlorinated Biphenyls and Their Major Metabolites” (Environmental Health Perspectives, 2020).
Like-named read-outs stand apart in the source and are kept apart here.

Test system: iCell cardiomyocytes (human iPSC-derived cardiomyocytes)
Assay: Intracellular Ca2+ flux / beating parameters in iCell cardiomyocytes (FLIPR tetra), 90 min or 24 h
Type: cell-based
Conditions: 0.00 µM = 100.00; for activity at 0.01 µM / activity at 0.1 µM / activity at 1 µM / activity at 10 µM / activity at 100 µM: Homo sapiens, Cardiomyocyte
Method in brief: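 Gelatin-plated iCell cardiomyocytes (5,000/well) were dye-loaded for 2 h at 37 °C, then exposed for 90 min or 24 h to PCBs/metabolites (5× plates at 0.05–500 µM; 0.5% DMSO final) in triplicate. Ca2+ flux was read for 100 s at 8 Hz and 37 °C. Peak height, frequency, spacing CV and decay/rise ratio were vehicle-normalized and fitted with a four-parameter logistic model, with POD set at 1 SD of vehicle.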

[1] = 1.5 h, 0.01 µM, read-out: cm.amp.avg.90min
[2] = 1.5 h, 0.01 µM, read-out: cm.amp.cv.90min
[3] = 1.5 h, 0.01 µM, read-out: cm.bpm.90min
[4] = 1.5 h, 0.01 µM, read-out: cm.decay.rise.90min
[5] = 1.5 h, 0.01 µM, read-out: cm.spacing.cv.90min
[6] = 1.5 h, 0.10 µM, read-out: cm.amp.avg.90min
[7] = 1.5 h, 0.10 µM, read-out: cm.amp.cv.90min
[8] = 1.5 h, 0.10 µM, read-out: cm.bpm.90min
[9] = 1.5 h, 0.10 µM, read-out: cm.decay.rise.90min
[10] = 1.5 h, 0.10 µM, read-out: cm.spacing.cv.90min
[11] = 1.5 h, 1.00 µM, read-out: cm.amp.avg.90min
[12] = 1.5 h, 1.00 µM, read-out: cm.amp.cv.90min
[13] = 1.5 h, 1.00 µM, read-out: cm.bpm.90min
[14] = 1.5 h, 1.00 µM, read-out: cm.decay.rise.90min
[15] = 1.5 h, 1.00 µM, read-out: cm.spacing.cv.90min
[16] = 1.5 h, 10.00 µM, read-out: cm.amp.avg.90min
[17] = 1.5 h, 10.00 µM, read-out: cm.amp.cv.90min
[18] = 1.5 h, 10.00 µM, read-out: cm.bpm.90min
[19] = 1.5 h, 10.00 µM, read-out: cm.decay.rise.90min
[20] = 1.5 h, 10.00 µM, read-out: cm.spacing.cv.90min
[21] = 1.5 h, 100.00 µM, read-out: cm.amp.avg.90min
[22] = 1.5 h, 100.00 µM, read-out: cm.amp.cv.90min
[23] = 1.5 h, 100.00 µM, read-out: cm.bpm.90min
[24] = 1.5 h, 100.00 µM, read-out: cm.decay.rise.90min
[25] = 1.5 h, 100.00 µM, read-out: cm.spacing.cv.90min
[26] = 24 h, 0.01 µM, read-out: cm.amp.avg.24hrs
[27] = 24 h, 0.01 µM, read-out: cm.amp.cv.24hrs
[28] = 24 h, 0.01 µM, read-out: cm.bpm.24hrs
[29] = 24 h, 0.01 µM, read-out: cm.decay.rise.24hrs
[30] = 24 h, 0.01 µM, read-out: cm.spacing.cv.24hrs
[31] = 24 h, 0.10 µM, read-out: cm.amp.avg.24hrs
[32] = 24 h, 0.10 µM, read-out: cm.amp.cv.24hrs
[33] = 24 h, 0.10 µM, read-out: cm.bpm.24hrs
[34] = 24 h, 0.10 µM, read-out: cm.decay.rise.24hrs
[35] = 24 h, 0.10 µM, read-out: cm.spacing.cv.24hrs
[36] = 24 h, 1.00 µM, read-out: cm.amp.avg.24hrs
[37] = 24 h, 1.00 µM, read-out: cm.amp.cv.24hrs
[38] = 24 h, 1.00 µM, read-out: cm.bpm.24hrs
[39] = 24 h, 1.00 µM, read-out: cm.decay.rise.24hrs
[40] = 24 h, 1.00 µM, read-out: cm.spacing.cv.24hrs
[41] = 24 h, 10.00 µM, read-out: cm.amp.avg.24hrs
[42] = 24 h, 10.00 µM, read-out: cm.amp.cv.24hrs
[43] = 24 h, 10.00 µM, read-out: cm.bpm.24hrs
[44] = 24 h, 10.00 µM, read-out: cm.decay.rise.24hrs
[45] = 24 h, 10.00 µM, read-out: cm.spacing.cv.24hrs
[46] = 24 h, 100.00 µM, read-out: cm.amp.avg.24hrs
[47] = 24 h, 100.00 µM, read-out: cm.amp.cv.24hrs
[48] = 24 h, 100.00 µM, read-out: cm.bpm.24hrs
[49] = 24 h, 100.00 µM, read-out: cm.decay.rise.24hrs
[50] = 24 h, 100.00 µM, read-out: cm.spacing.cv.24hrs

Clc1cccc(-c2cccc(Cl)c2)c1 [PCB11]
activity at 0.01 µM [1]: 99.2% | activity at 0.01 µM [2]: 103% | activity at 0.01 µM [3]: 103% | activity at 0.01 µM [4]: 101% | activity at 0.01 µM [5]: 93.4% | activity at 0.1 µM [6]: 102% | activity at 0.1 µM [7]: 91.4% | activity at 0.1 µM [8]: 103% | activity at 0.1 µM [9]: 98.2% | activity at 0.1 µM [10]: 89.8% | activity at 1 µM [11]: 105% | activity at 1 µM [12]: 97.9% | activity at 1 µM [13]: 95.3% | activity at 1 µM [14]: 99.6% | activity at 1 µM [15]: 107% | activity at 10 µM [16]: 94.8% | activity at 10 µM [17]: 99.8% | activity at 10 µM [18]: 114% | activity at 10 µM [19]: 91.8% | activity at 10 µM [20]: 101% | activity at 100 µM [21]: 22.3% | activity at 100 µM [22]: 139% | activity at 100 µM [23]: 0% | activity at 100 µM [24]: 54.6% | activity at 100 µM [25]: 66.2% | activity at 0.01 µM [26]: 137% | activity at 0.01 µM [27]: 77.1% | activity at 0.01 µM [28]: 108% | activity at 0.01 µM [29]: 93.4% | activity at 0.01 µM [30]: 127% | activity at 0.1 µM [31]: 134% | activity at 0.1 µM [32]: 69.8% | activity at 0.1 µM [33]: 105% | activity at 0.1 µM [34]: 98.1% | activity at 0.1 µM [35]: 98.2% | activity at 1 µM [36]: 130% | activity at 1 µM [37]: 77.5% | activity at 1 µM [38]: 93.6% | activity at 1 µM [39]: 108% | activity at 1 µM [40]: 92.8% | activity at 10 µM [41]: 110% | activity at 10 µM [42]: 90.8% | activity at 10 µM [43]: 106% | activity at 10 µM [44]: 111% | activity at 10 µM [45]: 98.2% | activity at 100 µM [46]: 0% | activity at 100 µM [47]: 0% | activity at 100 µM [48]: 0% | activity at 100 µM [49]: 0% | activity at 100 µM [50]: 0%

Oc1cc(Cl)cc(-c2cccc(Cl)c2)c1 [5-OH PCB 11]
activity at 0.01 µM [1]: 101% | activity at 0.01 µM [2]: 105% | activity at 0.01 µM [3]: 97.8% | activity at 0.01 µM [4]: 102% | activity at 0.01 µM [5]: 101% | activity at 0.1 µM [6]: 102% | activity at 0.1 µM [7]: 103% | activity at 0.1 µM [8]: 100% | activity at 0.1 µM [9]: 98.1% | activity at 0.1 µM [10]: 107% | activity at 1 µM [11]: 104% | activity at 1 µM [12]: 101% | activity at 1 µM [13]: 102% | activity at 1 µM [14]: 98.3% | activity at 1 µM [15]: 99.1% | activity at 10 µM [16]: 94.2% | activity at 10 µM [17]: 105% | activity at 10 µM [18]: 137% | activity at 10 µM [19]: 92% | activity at 10 µM [20]: 106% | activity at 100 µM [21]: 0% | activity at 100 µM [22]: 0% | activity at 100 µM [23]: 0% | activity at 100 µM [24]: 0% | activity at 100 µM [25]: 0% | activity at 0.01 µM [26]: 128% | activity at 0.01 µM [27]: 95.9% | activity at 0.01 µM [28]: 104% | activity at 0.01 µM [29]: 94.3% | activity at 0.01 µM [30]: 112% | activity at 0.1 µM [31]: 123% | activity at 0.1 µM [32]: 81.7% | activity at 0.1 µM [33]: 97.4% | activity at 0.1 µM [34]: 98.8% | activity at 0.1 µM [35]: 113% | activity at 1 µM [36]: 151% | activity at 1 µM [37]: 71% | activity at 1 µM [38]: 91.7% | activity at 1 µM [39]: 100% | activity at 1 µM [40]: 89.5% | activity at 10 µM [41]: 126% | activity at 10 µM [42]: 83.9% | activity at 10 µM [43]: 114% | activity at 10 µM [44]: 104% | activity at 10 µM [45]: 101% | activity at 100 µM [46]: 0% | activity at 100 µM [47]: 0% | activity at 100 µM [48]: 0% | activity at 100 µM [49]: 0% | activity at 100 µM [50]: 0%

Clc1ccc(Cl)c(-c2c(Cl)ccc(Cl)c2Cl)c1Cl [(-)-PCB 136, 2,2′,3,3′,6,6′-hexachlorobiphenyl]
cm.amp.avg.90min (0.01 µM): 93.19 | cm.amp.cv.90min (0.01 µM): 114.99 | cm.bpm.90min (0.01 µM): 99.06 | cm.decay.rise.90min (0.01 µM): 100.18 | cm.spacing.cv.90min (0.01 µM): 110.22 | cm.amp.avg.24hrs (0.01 µM): 96.89 | cm.amp.cv.24hrs (0.01 µM): 99.89 | cm.bpm.24hrs (0.01 µM): 97.37 | cm.decay.rise.24hrs (0.01 µM): 110.34 | cm.spacing.cv.24hrs (0.01 µM): 99.92 | cm.amp.avg.90min (0.10 µM): 107.52 | cm.amp.cv.90min (0.10 µM): 110.59 | cm.bpm.90min (0.10 µM): 101.57 | cm.decay.rise.90min (0.10 µM): 100.78 | cm.spacing.cv.90min (0.10 µM): 107.82 | cm.amp.avg.24hrs (0.10 µM): 74.13 | cm.amp.cv.24hrs (0.10 µM): 32.34 | cm.bpm.24hrs (0.10 µM): 44.87 | cm.decay.rise.24hrs (0.10 µM): 55.66 | cm.spacing.cv.24hrs (0.10 µM): 50.62 | cm.amp.avg.90min (1.00 µM): 95.68 | cm.amp.cv.90min (1.00 µM): 133.10 | cm.bpm.90min (1.00 µM): 102.82 | cm.decay.rise.90min (1.00 µM): 105.32 | cm.spacing.cv.90min (1.00 µM): 97.68 | cm.amp.avg.24hrs (1.00 µM): 66.49 | cm.amp.cv.24hrs (1.00 µM): 35.31 | cm.bpm.24hrs (1.00 µM): 50.60 | cm.decay.rise.24hrs (1.00 µM): 50.54 | cm.spacing.cv.24hrs (1.00 µM): 53.09 | cm.amp.avg.90min (10.00 µM): 76.03 | cm.amp.cv.90min (10.00 µM): 119.24 | cm.bpm.90min (10.00 µM): 115.36 | cm.decay.rise.90min (10.00 µM): 88.64 | cm.spacing.cv.90min (10.00 µM): 116.95 | cm.amp.avg.24hrs (10.00 µM): 43.21 | cm.amp.cv.24hrs (10.00 µM): 38.97 | cm.bpm.24hrs (10.00 µM): 43.91 | cm.decay.rise.24hrs (10.00 µM): 43.15 | cm.spacing.cv.24hrs (10.00 µM): 54.11 | cm.amp.avg.90min (100.00 µM): 0.00 | cm.amp.cv.90min (100.00 µM): 0.00 | cm.bpm.90min (100.00 µM): 0.00 | cm.decay.rise.90min (100.00 µM): 0.00 | cm.spacing.cv.90min (100.00 µM): 0.00 | cm.amp.avg.24hrs (100.00 µM): 0.00 | cm.amp.cv.24hrs (100.00 µM): 0.00 | cm.bpm.24hrs (100.00 µM): 0.00 | cm.decay.rise.24hrs (100.00 µM): 0.00 | cm.spacing.cv.24hrs (100.00 µM): 0.00
